Laboratory results: BindingDB's records for doi:10.3109/14756361003698147 (Shandong University, 2012)
Where a name gives a salt, the structure may show the parent alone.

Tests used:
[1] = biological target: 72 kDa type IV collagenase (Homo sapiens, UniProt P08253); assay: In Vitro MMP-2 Inhibition Assay; conditions: pH 8.5; 25 °C
Aminopeptidase N = biological target: T1, Aminopeptidase N (Sus scrofa, UniProt P15145); assay: In Vitro APN Inhibition Assay
T1 sequence (P15145 whole entry): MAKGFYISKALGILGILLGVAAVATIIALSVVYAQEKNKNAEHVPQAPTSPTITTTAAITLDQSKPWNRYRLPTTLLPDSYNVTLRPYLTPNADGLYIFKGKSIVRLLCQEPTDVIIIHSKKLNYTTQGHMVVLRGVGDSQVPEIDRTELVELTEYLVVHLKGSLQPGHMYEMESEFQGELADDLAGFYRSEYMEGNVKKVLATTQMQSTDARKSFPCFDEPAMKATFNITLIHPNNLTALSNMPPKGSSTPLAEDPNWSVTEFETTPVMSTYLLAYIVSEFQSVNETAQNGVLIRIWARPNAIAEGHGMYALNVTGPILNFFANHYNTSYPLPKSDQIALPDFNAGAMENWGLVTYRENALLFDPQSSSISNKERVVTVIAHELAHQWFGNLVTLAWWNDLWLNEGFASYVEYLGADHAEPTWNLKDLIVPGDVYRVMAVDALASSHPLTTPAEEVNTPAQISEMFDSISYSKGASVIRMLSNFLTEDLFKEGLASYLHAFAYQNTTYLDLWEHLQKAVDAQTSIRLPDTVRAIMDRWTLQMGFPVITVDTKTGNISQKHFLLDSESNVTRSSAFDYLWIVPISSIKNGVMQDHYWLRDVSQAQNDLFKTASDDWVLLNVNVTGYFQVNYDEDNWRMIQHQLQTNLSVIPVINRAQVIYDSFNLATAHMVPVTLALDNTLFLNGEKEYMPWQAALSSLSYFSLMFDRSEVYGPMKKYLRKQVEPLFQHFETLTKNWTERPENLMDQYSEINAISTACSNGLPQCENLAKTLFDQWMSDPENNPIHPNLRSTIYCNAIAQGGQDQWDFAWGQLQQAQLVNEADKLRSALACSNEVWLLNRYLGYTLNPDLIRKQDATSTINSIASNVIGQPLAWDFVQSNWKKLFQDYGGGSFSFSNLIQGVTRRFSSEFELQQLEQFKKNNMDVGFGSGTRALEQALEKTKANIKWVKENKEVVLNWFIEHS
Procedure: Allcompounds were pre-incubated with APN on a 96-well plate for 30 min. […] Fifteen minutes later, the absorbance (OD405) of the wells was recorded on a microplate reader.

Chain of 72 kDa type IV collagenase (P08253 whole entry): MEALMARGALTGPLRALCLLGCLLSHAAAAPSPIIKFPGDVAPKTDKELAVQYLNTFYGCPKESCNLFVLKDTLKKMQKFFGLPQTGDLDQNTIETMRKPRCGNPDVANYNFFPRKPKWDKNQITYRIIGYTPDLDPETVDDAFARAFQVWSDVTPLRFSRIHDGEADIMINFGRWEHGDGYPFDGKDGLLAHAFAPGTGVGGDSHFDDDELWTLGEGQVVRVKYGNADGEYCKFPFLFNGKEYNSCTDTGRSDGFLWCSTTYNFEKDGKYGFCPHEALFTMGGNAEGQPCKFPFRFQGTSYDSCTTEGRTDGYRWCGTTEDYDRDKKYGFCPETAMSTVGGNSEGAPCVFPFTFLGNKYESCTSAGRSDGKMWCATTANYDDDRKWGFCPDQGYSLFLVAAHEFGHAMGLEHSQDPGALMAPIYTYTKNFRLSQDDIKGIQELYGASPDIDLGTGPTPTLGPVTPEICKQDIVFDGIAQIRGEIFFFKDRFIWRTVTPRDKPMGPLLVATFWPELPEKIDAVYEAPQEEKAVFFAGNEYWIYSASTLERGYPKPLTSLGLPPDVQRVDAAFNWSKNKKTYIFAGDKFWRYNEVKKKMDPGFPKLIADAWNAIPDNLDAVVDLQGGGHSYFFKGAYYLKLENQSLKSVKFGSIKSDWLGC

Row | IC50 [1] [µM] | IC50 (Aminopeptidase N) [µM] | SMILES
1 | 167 | – | CC(C)C[C@H](NC(=O)[C@@H](O)[C@H](N)Cc1ccccc1)C(=O)O
2 | 364 | 199 | CC(C)C[C@H](NC(=O)[C@@H](O)CN)C(=O)O
3 | 710 | 249 | NC[C@H](O)C(=O)N[C@@H](Cc1ccccc1)C(=O)O [(2S)-2-[(2S)-3-amino-2-hydroxypropanamido]-3-phenylpropanoic acid (12a)]
4 | 329 | 99.5 | NC[C@H](O)C(=O)N[C@@H](Cc1ccccc1)C(=O)OCc1ccccc1 [L-Isoseryl-L- phenylalanine benzyl ester hydrochloride (11c)]
5 | 1000 | 195 | CC(C)C[C@H](NC(=O)[C@@H](O)CN)C(=O)OCc1ccccc1 [L-Isoseryl-L-leucine benzyl ester hydrochloride (11d)]
6 | 682 | 229 | COC(=O)[C@H](CC(C)C)NC(=O)[C@@H](O)CN [L-Isoseryl-L-leucine methyl ester hydrochloride (11b)]
7 | 115 | 20.9 | CC(C)C[C@H](NC(=O)[C@@H](O)CN)C(=O)N[C@@H](Cc1ccccc1)C(=O)O [L-Isoseryl-L-leucyl-L-phenylalanine hydrochloride (14a)]
8 | 126 | 140 | COC(=O)[C@H](Cc1ccccc1)NC(=O)[C@H](CC(C)C)NC(=O)[C@@H](O)CN [L-Isoseryl-L-leucyl-L-phenylalanine methyl ester hydrochloride (13a)]
9 | 334 | 32.2 | CC(C)C[C@H](NC(=O)[C@H](Cc1ccccc1)NC(=O)[C@@H](O)CN)C(=O)OCc1ccccc1 [L-Isoseryl-L-phenylalanyl-L-leucine benzyl ester hydrochloride (13d)]
10 | 203 | 12.2 | CC(C)C[C@H](NC(=O)[C@H](Cc1ccccc1)NC(=O)[C@@H](O)CN)C(=O)O [L-Isoseryl-L-phenylalanyl-L-leucine hydrochloride (14b)]
11 | > 1000 | 302 | COC(=O)[C@H](Cc1ccccc1)NC(=O)[C@@H](O)CN [Methyl (2S)-2-[(2S)-3-amino-2-hydroxypropanamido]-3-phenylpropanoate (11a)]
